The record followed here is article PMC4644822, “Extracellular α-Galactosidase from Trichoderma sp. (WF-3): Optimization of Enzyme Production and Biochemical Characterization” (Biotechnology Research International, 2015).

SMILES strings stand for the structures.

The test system of this experiment is T1, extracellular α-galactosidase from Trichoderma sp. (WF-3).
T1 construct: gene agl1; native secreted enzyme, unpurified culture filtrate
As to the kind of experiment: p-nitrophenol release at […] nm, Lineweaver-Burk plot. It is filed as biochemical. The following applies: culture filtrate (unpurified); standard assay 0.05 M sodium acetate pH 5.0, 50 °C, 10 min; 0.05-4.5 mM substrate; read-out: apparent K m.

Turning to `O=[N+]([O-])c1ccc(O[C@H]2O[C@H](CO)[C@H](O)[C@H](O)[C@H]2O)cc1` [pNPGal, p-nitrophenyl-α-D-galactopyranoside], the Km was determined as 500 µM.
